Data on four compounds can be found in article doi:10.1101/2021.10.04.463106, “A high throughput screening assay for inhibitors of SARS-CoV-2 pseudotyped particle entry” (bioRxiv, 2021).

What all share (experiment): microbe, parasite or virus in culture
Common to all, as to assay type: cell-based

The subject of assay [1] is SARS-CoV-2-S PP (Wuhan-Hu-1 spike).
The test system of assay [2] is SARS-CoV-2-S PP (B.1.1.7 spike variant).
The subject of assay [3] is SARS-CoV-2-S PP (B.1.351 spike variant).
The mark [4] stands for this setting: Severe acute respiratory syndrome coronavirus 2, read-out: EC50, Wuhan-Hu-1 PP.
Setting [5] is: Severe acute respiratory syndrome coronavirus 2, read-out: EC50, B.1.1.7 PP.
[6] abbreviates: Severe acute respiratory syndrome coronavirus 2, read-out: EC50, B.1.351 PP.

Read-outs that look alike come from different tables or passages of the source.

`CCCC[C@@H](C=O)NC(=O)[C@H](CC(C)C)NC(=O)OCc1ccccc1` [Calpeptin, calpeptin]: the values for the EC50 in assay [1] (setting [4]), in assay [2] (setting [5]) and in assay [3] (setting [6]) were 870 nM, 310 nM and 1070 nM, respectively.
As for `CCOC(=O)[C@H]1O[C@@H]1C(=O)N[C@@H](CC(C)C)C(=O)NCCC(C)C` [Aloxistatin, aloxistatin], the EC50 in assay [1] (setting [4]) amounted to 800 nM; in assay [2] (setting [5]), 460 nM; in assay [3] (setting [6]), 1210 nM.
With `Cc1cccc(/C=N/Nc2cc(N3CCOCC3)nc(OCCc3ccccn3)n2)c1` [Apilimod, apilimod], the 50% effective concentration (EC50) in assay [1] (Severe acute respiratory syndrome coronavirus 2, read-out: EC50 in Wuhan-Hu-1 SARS-CoV-2-S PP entry assay) was determined as 9.2 nM; in assay [2] (Severe acute respiratory syndrome coronavirus 2, read-out: EC50 in B.1.1.7 SARS-CoV-2-S PP entry assay) it was 1.3 nM; in assay [3] (Severe acute respiratory syndrome coronavirus 2, read-out: EC50 in B.1.351 SARS-CoV-2-S PP entry assay) it was 4.7 nM. The “shift in potency between the Wuhan-Hu-1 spike sequence and the B.1.1.7 spike variant” value in assay [2] was 7 fold.
Take `COc1cc(N2CCC(N3CCN(C)CC3)CC2)ccc1Nc1ncc(Cl)c(Nc2ccccc2P(C)(C)=O)n1` [Brigatinib, brigatinib]: the EC50 came out at 38 nM in assay [1] (setting [4]), 54 nM in assay [2] (setting [5]) and 23 nM in assay [3] (setting [6]).
